Key:
Assay in all cases: Weeding effect in post-emergence stage (greenhouse pot spray)
Assay type in all cases: in vivo
[1] = system: Abutilon theophrasti
How it was run: (§1)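 Read-out: fresh-weight growth control rate scored 3 weeks after spraying, mean of three replicates. Plants treated at 2-3 leaf stage by spray tower, doses 500-15 g a.i./ha (500, 250, 125, 60, 15).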

[2] = system: Digitaria sanguinalis
How it was run: as §1

[3] = system: Echinochloa crusgalli
How it was run: as §1

[4] = system: Amaranthus retroflexus
Text: (§2) The activity level criteria for plant damage (i.e., growth control rate) are as follows:
(§3) The above growth control rates are fresh weight control rates.
(§4) Experiment on weeding effect in post-emergence stage: monocotyledonous and dicotyledonous weed seeds (Descurainia sophia, Capsella bursa-pastoris, Abutilon theophrasti, Galium aparine, Stellaria media, Lithospermum arvense, rorippa indica, Alopecurus aequalis, Beckmannia syzigachne, Sclerochloa dura, Phleum paniculatum, Bromus japonicus, Aegilops tauschii, Phalaris arundinacea, Amaranthus retroflexus, Chenopodiaceae, Commelina communis, Sonchus arvensis, convolvulus arvensis, Cirsium setosum, Solanum nigrum, Acalypha australis, Digitaria sanguinalis, Echinochloa crusgalli, Setaria viridis, Setaria glauca, Leptochloa chinensis, Monochoria vaginalis, Sagittaria trifolia, Scirpus juncoides, Cyperus rotundus, Cyperus iria, Cyperus difformis, Fimbristylis, Portulaca oleracea, Xanthium sibiricum, Pharbitis nil) and major crop seeds (wheat, corn, rice, soybean, cotton, oilseed rape, millet, sorghum, potato, sesame, ricinus) were placed in plastic pots filled with soil, then covered with 0.5-2 cm of soil, allowed to grow in a good greenhouse environment. After 2 weeks of sowing, the test plants were treated in the 2 to 3 leaf stage. The tested compounds of the present invention were respectively dissolved in acetone, then added with Tween 80 and 1.5 liter/ha of emulsifiable concentrate of methyl oleate as synergist, diluted with a certain amount of water to obtain a solution with a certain concentration, and sprayed with a spray tower onto the plants. After the application, the plants were cultured for 3 weeks in the greenhouse, and then the experimental results of the weeding were counted. The doses of the used compounds were 500, 250, 125, 60, 15 g a.i./ha, and the averages were obtained by repeating for three times.

[5] = system: Stellaria media
Text: as §2, §3, §4

Row | SMILES | Abutilion theophrasti (activity level) ([1]; Table 2, dose 500 g a.i./ha) | Digitaria sanguinalis (activity level) ([2]; Table 2, dose 500 g a.i./ha) | Echinochloa crusgah (activity level) ([3]; Table 2, dose 500 g a.i./ha) | Amaranthus retroflexus (activity level) ([4]; Table 2, dose 500 g a.i./ha) | Stellaria media (activity level) ([5]; Table 2, dose 500 g a.i./ha) | Abutilion theophrasti (activity level) ([1]; Table 2, dose 250 g a.i./ha) | Digitaria sanguinalis (activity level) ([2]; Table 2, dose 250 g a.i./ha) | Echinochloa crusgah (activity level) ([3]; Table 2, dose 250 g a.i./ha) | Amaranthus retroflexus (activity level) ([4]; Table 2, dose 250 g a.i./ha) | Stellaria media (activity level) ([5]; Table 2, dose 250 g a.i./ha)
1 | C=CCC[S+]([O-])c1c(C(F)(F)F)ccc(C(=O)Nc2nnc(C)o2)c1F (stereo not shown) [Compound 1-397] | 5 (Level 5: growth control rate is above 85%) | 5 (Level 5: growth control rate is above 85%) | 5 (Level 5: growth control rate is above 85%) | 5 (Level 5: growth control rate is above 85%) | 5 (Level 5: growth control rate is above 85%) | – | – | – | – | –
2 | CC=CC[S+]([O-])c1c(C(F)(F)F)ccc(C(=O)Nc2nnc(C)o2)c1F (stereo not shown) [Compound 1-398] | 5 (Level 5: growth control rate is above 85%) | 5 (Level 5: growth control rate is above 85%) | 5 (Level 5: growth control rate is above 85%) | 5 (Level 5: growth control rate is above 85%) | 5 (Level 5: growth control rate is above 85%) | – | – | – | – | –
3 | CNCC[S+]([O-])c1c(C(F)(F)F)ccc(C(=O)Nc2nnc(C)o2)c1F (stereo not shown) [Compound 1-441] | 5 (Level 5: growth control rate is above 85%) | 5 (Level 5: growth control rate is above 85%) | 5 (Level 5: growth control rate is above 85%) | 5 (Level 5: growth control rate is above 85%) | 5 (Level 5: growth control rate is above 85%) | – | – | – | – | –
4 | COC[S+]([O-])c1c(C(F)(F)F)ccc(C(=O)Nc2nnc(C)o2)c1F (stereo not shown) [Compound 1-443] | 5 (Level 5: growth control rate is above 85%) | 5 (Level 5: growth control rate is above 85%) | 5 (Level 5: growth control rate is above 85%) | 5 (Level 5: growth control rate is above 85%) | 5 (Level 5: growth control rate is above 85%) | – | – | – | – | –
5 | CCOCC[S+]([O-])c1c(C(F)(F)F)ccc(C(=O)Nc2nnc(C)o2)c1F (stereo not shown) [Compound 1-446] | – | – | – | – | – | 5 (Level 5: growth control rate is above 85%) | 5 (Level 5: growth control rate is above 85%) | 5 (Level 5: growth control rate is above 85%) | 5 (Level 5: growth control rate is above 85%) | 5 (Level 5: growth control rate is above 85%)
6 | COC(C)C[S+]([O-])c1c(C(F)(F)F)ccc(C(=O)Nc2nnc(C)o2)c1F (stereo not shown) [Compound 1-447] | 5 (Level 5: growth control rate is above 85%) | 5 (Level 5: growth control rate is above 85%) | 5 (Level 5: growth control rate is above 85%) | 5 (Level 5: growth control rate is above 85%) | 5 (Level 5: growth control rate is above 85%) | – | – | – | – | –
7 | COCCC[S+]([O-])c1c(C(F)(F)F)ccc(C(=O)Nc2nnc(C)o2)c1F (stereo not shown) [Compound 1-448] | 5 (Level 5: growth control rate is above 85%) | 5 (Level 5: growth control rate is above 85%) | 5 (Level 5: growth control rate is above 85%) | 5 (Level 5: growth control rate is above 85%) | 5 (Level 5: growth control rate is above 85%) | – | – | – | – | –
8 | CCSc1c(C(F)(F)F)ccc(C(=O)Nc2nnc(CC)o2)c1F [Compound 2-4] | 5 (Level 5: growth control rate is above 85%) | 5 (Level 5: growth control rate is above 85%) | 5 (Level 5: growth control rate is above 85%) | 5 (Level 5: growth control rate is above 85%) | 5 (Level 5: growth control rate is above 85%) | – | – | – | – | –

Source: patent publication US20230041563A1, “N-(1,3,4-OXADIAZOL-2-YL)ARYLCARBOXAMIDES OR SALTS THEREOF, PREPARATION METHODS, HERBICIDAL COMPOSITIONS AND USES THEREOF” (priority 2018, published 2023)
